ChEMBL document CHEMBL1122017, “Synthesis and peripheral cardiovascular action of cis- and trans-2-(3,4-dimethoxybenzyl)cyclopentylamine hydrochlorides” (1982)

Key:
Canis familiaris [1] = assay: Mean percent decrease in mean blood pressure was determined at the dose of 15 umol/kg (2 minutes after injection) in mongrel dogs; format: functional, Canis lupus familiaris
Canis familiaris [2] = assay: Mean percent decrease in mean blood pressure was determined at the dose of 15 umol/kg in mongrel dogs; format: functional, Canis lupus familiaris

| Structure (SMILES) | Decrease in blood pressure (Canis familiaris [1]) | Decrease in blood pressure (Canis familiaris [2]) |
| --- | --- | --- |
| COc1ccc(C[C@@H]2CCC[C@@H]2N)cc1OC | 37.9% | 30% |
| COc1ccc(C[C@@H]2CCC[C@H]2N)cc1OC | 7.5% | 25.1% |
